Data as given in patent US20130053381A1, “2,4-DIOXO-1,4-DIHYDRO-2H-QUINAZOLIN-3-YL-SULFONAMIDE DERIVATIVES” (NOVARTIS AG, priority 2010, published 2013).
pIC50: −log10 of the molar value.

The compounds below were run against AMPA receptor (assay: [3H]CNQX binding test (AMPA-receptor binding)). Conditions: Table 1A parent compounds; AMPA-receptor binding as described for Table 2; read-out: IC50.
Design: species or system rat
Protocol: CNQX binding test (Honore et al. Biochem. Pharmacol. 1989, 38: 3207-3212). This test is performed as follows.
Brain membranes: The animals are sacrificed, the brain removed and homogenized in 10 volumes of ice-cold 10% sucrose with a glass/Teflon homogenizer at positions 5 for 30 sec. The membranes are centrifuged at 1000×g for 10 min, and the supernatant centrifuged at 20,000×g for 15 min. The resulting pellet is resuspended in 10 volumes of cold water with a tissue homogenizer (Brinkman Polytron) at position 5 for 15 sec and the suspension centrifuged at 8000×g for 10 min. The supernatant including the buffy layer is centrifuged at 40,000×g for 20 min, the pellet resuspended in 5 volumes of water and the suspension frozen (20-30 min in dry ice/MeOH) and thawed (water-bath at 37° C.) twice. The suspension is centrifuged at 40,000×g for 20 min, the pellet resuspended in 50 mM HEPES/KOH, pH 7.5, and centrifuged at 40,000×g for 10 min. The final pellet is resuspended with a glass/Teflon homogenizer in 5 volumes of HEPES/KOH buffer; 2 mL aliquots are frozen and stored in liquid nitrogen.
Pretreatment of membranes: Membranes are thawed at 35° C. and once washed with 50 mM HEPES/KOH by centrifugation at 39,000×g for 10 min. The final pellet is resuspended with a glass/Teflon homogenizer in the same buffer.
Radioligand binding assay: It is performed using 96-well microtiterplates in a volume of 0.3 mL of 50 mM HEPES/KOH, pH 7.2, 100 μg membrane protein, 5 nM [^3H]-CNQX (NEN) and the compound to be tested. Incubation is performed at 4° C. for 40 min and the reaction is terminated by centrifugation (Sigma 4K10) at 3700×g for 30 min. The pellet is washed once with cold buffer and then dissolved in 0.02 mL of the tissue solubilizer Soluene for 20 min. Two hundred μL of the scintillation fluid Microscint 20 (Packard) are added and the radioactivity is counted in a Packard Topcount scintillation counter at an efficiency of 40-45%. Nonspecific binding is defined by 10 μM CNQX. Assays are performed in triplicate.
Work on `COC(C)c1cc2c(=O)n(NS(C)(=O)=O)c(=O)[nH]c2cc1C(F)(F)F` (stereo not drawn) [Example 16.0] yielded a pIC50 of 6.41.
`CCOC(C)c1cc2c(=O)n(NS(C)(=O)=O)c(=O)[nH]c2cc1C(F)(F)F` (stereo not drawn) [Example 17.0] was tested, and the pIC50 was 6.46.
`CC(C)OC(C)c1cc2c(=O)n(NS(C)(=O)=O)c(=O)[nH]c2cc1C(F)(F)F` (stereo not drawn) [Example 18.0] gave a pIC50 of 6.49.
`CCCOC(CC)c1cc2c(=O)n(NS(C)(=O)=O)c(=O)[nH]c2cc1C(F)(F)F` (stereo not drawn) [Example 19.0] was tested, and the pIC50 was 6.28.
In the case of `CCC(OC(C)C)c1cc2c(=O)n(NS(C)(=O)=O)c(=O)[nH]c2cc1C(F)(F)F` (stereo not drawn) [Example 20.0], the pIC50 was 6.42.
For `CCOC(C)c1cc2c(=O)n(NS(C)(=O)=O)c(=O)[nH]c2cc1C(F)F` (stereo not drawn) [Example 21.0], the pIC50 was 6.05.
`CCCOC(C)c1cc2c(=O)n(NS(C)(=O)=O)c(=O)[nH]c2cc1C(F)(F)F` (stereo not drawn) [Example 22.0] showed a pIC50 of 6.01.
With `CCCCOC(C)c1cc2c(=O)n(NS(C)(=O)=O)c(=O)[nH]c2cc1C(F)(F)F` (stereo not drawn) [Example 23.0] the pIC50 was 6.12.
Work on `CC(C)COC(C)c1cc2c(=O)n(NS(C)(=O)=O)c(=O)[nH]c2cc1C(F)(F)F` (stereo not drawn) [Example 24.0] yielded a pIC50 of 5.74.
`CC(OC1CCCC1)c1cc2c(=O)n(NS(C)(=O)=O)c(=O)[nH]c2cc1C(F)(F)F` (stereo not drawn) [Example 25.0] gave a pIC50 of 6.27.
Work on `CCOC(CC)c1cc2c(=O)n(NS(C)(=O)=O)c(=O)[nH]c2cc1C(F)(F)F` (stereo not drawn) [Example 26.0] yielded a pIC50 of 6.29.
Compound `CCCC(OC)c1cc2c(=O)n(NS(C)(=O)=O)c(=O)[nH]c2cc1C(F)(F)F` (stereo not drawn) [Example 27.0] has a pIC50 of 6.14.
`COC(c1cc2c(=O)n(NS(C)(=O)=O)c(=O)[nH]c2cc1C(F)(F)F)C(C)C` (stereo not drawn) [Example 28.0] showed a pIC50 of 5.98.
`CS(=O)(=O)Nn1c(=O)[nH]c2cc(C(F)(F)F)c(C3CCCCO3)cc2c1=O` (stereo not drawn) [Example 29.0] gave a pIC50 of 5.97.
Work on `CS(=O)(=O)Nn1c(=O)[nH]c2cc(C(F)(F)F)c(C3CCOC3)cc2c1=O` (stereo not drawn) [Example 30.0] yielded a pIC50 of 6.66.
`CS(=O)(=O)Nn1c(=O)[nH]c2cc(C(F)(F)F)c(-c3ccnn3O)cc2c1=O` [Example 31.0] showed a pIC50 of 6.85.
For `COCCn1nccc1-c1cc2c(=O)n(NS(C)(=O)=O)c(=O)[nH]c2cc1C(F)(F)F` [Example 32.0], the pIC50 was 6.51.
With `CC(C)n1nccc1-c1cc2c(=O)n(NS(C)(=O)=O)c(=O)[nH]c2cc1CF` [Example 33.0] the pIC50 was 6.36.
Work on `Cn1nccc1-c1cc2c(=O)n(NS(C)(=O)=O)c(=O)[nH]c2cc1C(F)F` [Example 34.0] yielded a pIC50 of 6.59.
Compound `CC(C)n1nccc1-c1cc2c(=O)n(NS(C)(=O)=O)c(=O)[nH]c2cc1C(F)F` [Example 35.0] has a pIC50 of 6.96.
`COCCn1nccc1-c1cc2c(=O)n(NS(C)(=O)=O)c(=O)[nH]c2cc1C(C)C` [Example 36.0] gave a pIC50 of 6.49.
For `CC(C)c1cc2[nH]c(=O)n(NS(C)(=O)=O)c(=O)c2cc1-c1ccnn1C(C)C` [Example 37.0], the pIC50 was 6.37.
`CS(=O)(=O)Nn1c(=O)[nH]c2cc(C(F)(F)F)c(-c3ccn[nH]3)cc2c1=O` [Example 38.0] gave a pIC50 of 6.33.
Work on `Cn1nccc1-c1cc2c(=O)n(NS(C)(=O)=O)c(=O)[nH]c2cc1CF` [Example 39.0] yielded a pIC50 of 6.11.
`CC(C)n1nccc1-c1cc2c(=O)n(NS(C)(=O)=O)c(=O)[nH]c2cc1C(C)(F)F` [Example 40.0] was tested, and the pIC50 was 6.68.
With `Cn1nccc1-c1cc2c(=O)n(NS(C)(=O)=O)c(=O)[nH]c2cc1C(C)(F)F` [Example 41.0] the pIC50 was 6.24.
`CC(F)c1cc2[nH]c(=O)n(NS(C)(=O)=O)c(=O)c2cc1-c1ccnn1C(C)C` (stereo not drawn) [Example 42.0] showed a pIC50 of 6.66.

Each compound was assayed on OF1 mice (assay: Maximal electroshock test (MES Test)). Conditions: Mus musculus; dose of up to 50 mg/kg, p.o., 1 hour prior to induction of convulsions; read-out: %-Protection.
Assay type: in vivo
Outline: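 Readout: fraction of five OF1 mice protected, meaning seizure duration 3 s or less, after a 50 Hz, 18 mA, 0.2 s temporal-electrode shock. Dosing was oral, usually 50 mg/kg, one hour beforehand; ED50 values were derived and post-shock blood taken for exposure.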
`CCn1nccc1-c1cc2c(=O)n(N(C(=O)CCSC)S(C)(=O)=O)c(=O)[nH]c2cc1C(F)F` [N-[7-Difluoromethyl-6-(2-ethyl-2H-pyrazol-3-yl)-2,4-dioxo-1,4-dihydro-2H-quinazolin-3-yl]-N-(3-methylsulfanyl-propionyl)-methanesulfonamide] showed a responders at 50 mg/kg of 0%.
Work on `CCCCC(=O)N(n1c(=O)[nH]c2cc(C(F)F)c(-c3ccnn3CC)cc2c1=O)S(C)(=O)=O` [N-[7-Difluoromethyl-6-(2-ethyl-2H-pyrazol-3-yl)-2,4-dioxo-1,4-dihydro-2H-quinazolin-3-yl]-N-pentanoyl-methanesulfonamide] yielded a responders at 50 mg/kg of 0%.
For `CCC(=O)N(n1c(=O)[nH]c2cc(C(F)F)c(-c3ccnn3CC)cc2c1=O)S(C)(=O)=O` [N-[7-Difluoromethyl-6-(2-ethyl-2H-pyrazol-3-yl)-2,4-dioxo-1,4-dihydro-2H-quinazolin-3-yl]-N-propionyl-methanesulfonamide], the responders at 50 mg/kg was 0%.
`CCCCCC(=O)N(n1c(=O)[nH]c2cc(C(F)F)c(-c3ccnn3C(C)C)cc2c1=O)S(C)(=O)=O` [N-[7-Difluoromethyl-6-(2-isopropyl-2H-pyrazol-3-yl)-2,4-dioxo-1,4-dihydro-2H-quinazolin-3-yl]-N-hexanoyl-methanesulfonamide] gave a responders at 50 mg/kg of 0%.
`CC(C)C(=O)N(n1c(=O)[nH]c2cc(C(F)F)c(-c3ccnn3C(C)C)cc2c1=O)S(C)(=O)=O` [N-[7-Difluoromethyl-6-(2-isopropyl-2H-pyrazol-3-yl)-2,4-dioxo-1,4-dihydro-2H-quinazolin-3-yl]-N-isobutyryl-methanesulfonamide] gave a responders at 50 mg/kg of 0%.
For `CCc1cc2[nH]c(=O)n(N(C(=O)C(C)C)S(C)(=O)=O)c(=O)c2cc1-c1ccnn1CC` [N-[7-Ethyl-6-(2-ethyl-2H-pyrazol-3-yl)-2,4-dioxo-1,4-dihydro-2H-quinazolin-3-yl]-N-isobutyryl-methanesulfonamide], the responders at 50 mg/kg was 0%.
Work on `CCc1cc2[nH]c(=O)n(N(C(=O)C(C)C)S(C)(=O)=O)c(=O)c2cc1-c1ccnn1C` [N-[7-Ethyl-6-(2-methyl-2H-pyrazol-3-yl)-2,4-dioxo-1,4-dihydro-2H-quinazolin-3-yl]-N-isobutyryl-methanesulfonamide] yielded a responders at 50 mg/kg of 0%.
Work on `CC(C)CC(=O)N(n1c(=O)[nH]c2cc(C(C)C)c(-c3ccnn3C)cc2c1=O)S(C)(=O)=O` [N-[7-Isopropyl-6-(2-methyl-2H-pyrazol-3-yl)-2,4-dioxo-1,4-dihydro-2H-quinazolin-3-yl]-N-(3-methyl-butyryl)-methanesulfonamide] yielded a responders at 50 mg/kg of 0%.
In the case of `CC(C)C(=O)N(n1c(=O)[nH]c2cc(C(F)(F)F)c([C@H]3CCCO3)cc2c1=O)S(C)(=O)=O` [N—((R)-2,4-Dioxo-6-tetrahydro-furan-2-yl-7-trifluoromethyl-1,4-dihydro-2H-quinazolin-3-yl)-N-isobutyryl-methanesulfonamide], the responders at 50 mg/kg was 0%.
`COC(=O)N(n1c(=O)[nH]c2cc(C(F)(F)F)c(-c3ccnn3C(C)C)cc2c1=O)S(C)(=O)=O` [[6-(2-Isopropyl-2H-pyrazol-3-yl)-2,4-dioxo-7-trifluoromethyl-1,4-dihydro-2H-quinazolin-3-yl]-methanesulfonyl-carbamic acid methyl ester] gave a responders at 50 mg/kg of 0%.
`CCCCOC(=O)N(n1c(=O)[nH]c2cc(C(F)F)c(-c3ccnn3CC)cc2c1=O)S(C)(=O)=O` [[7-Difluoromethyl-6-(2-ethyl-2H-pyrazol-3-yl)-2,4-dioxo-1,4-dihydro-2H-quinazolin-3-yl]-methanesulfonyl-carbamic acid butyl ester] gave a responders at 50 mg/kg of 0%.
`CCn1nccc1-c1cc2c(=O)n(N(C(=O)OC)S(C)(=O)=O)c(=O)[nH]c2cc1C(F)F` [[7-Difluoromethyl-6-(2-ethyl-2H-pyrazol-3-yl)-2,4-dioxo-1,4-dihydro-2H-quinazolin-3-yl]-methanesulfonyl-carbamic acid methyl ester] was tested, and the responders at 50 mg/kg was 0%.
`CCCCOC(=O)N(n1c(=O)[nH]c2cc(C(F)F)c(-c3ccnn3C(C)C)cc2c1=O)S(C)(=O)=O` [[7-Difluoromethyl-6-(2-isopropyl-2H-pyrazol-3-yl)-2,4-dioxo-1,4-dihydro-2H-quinazolin-3-yl]-methanesulfonyl-carbamic acid butyl ester] gave a responders at 50 mg/kg of 0%.
In the case of `CC(C)COC(=O)N(n1c(=O)[nH]c2cc(C(F)F)c(-c3ccnn3C(C)C)cc2c1=O)S(C)(=O)=O` [[7-Difluoromethyl-6-(2-isopropyl-2H-pyrazol-3-yl)-2,4-dioxo-1,4-dihydro-2H-quinazolin-3-yl]-methanesulfonyl-carbamic acid isobutyl ester], the responders at 50 mg/kg was 0%.
In the case of `COC(=O)N(n1c(=O)[nH]c2cc(C(F)F)c(-c3ccnn3C(C)C)cc2c1=O)S(C)(=O)=O` [[7-Difluoromethyl-6-(2-isopropyl-2H-pyrazol-3-yl)-2,4-dioxo-1,4-dihydro-2H-quinazolin-3-yl]-methanesulfonyl-carbamic acid methyl ester], the responders at 50 mg/kg was 0%.
